pIC50: −log10 of the molar value. “And” between values parts separate entries of the source, which are not always exact repeats. Equal entries are not always repeated. Where two headings read alike, the source gives them in different places. No end group written: not given here.
How the values were obtained:
Test in all cases: biochemical
H-2Dd = H-2Dd (Mus musculus, UniProt P01900); format: binding, murine
H-2 Db = H-2 Db (Mus musculus, UniProt P01899); format: binding, murine
HLA-B*0702 = HLA-B*0702 (Homo sapiens, UniProt P01889); format: binding
HLA-B*5101 = HLA-B*5101 (Homo sapiens, UniProt P01889, A329T/A93T/A95T/C349S/D138N/D201E/D98Y/E187L/E204Q/E69T/G107R/I218V/K202T/L105A/L119W/N104I/Q94N/R106L/R155S/R180L/S101N/S121T/S35A/S48A/V306I/V36M/Y195H/Y91F); conditions: B*5101 binding affinity (IC50)
HLA-B*3501 = HLA-B*3501 (Homo sapiens, UniProt P01889, A329T/A93T/A95T/C349S/D201E/D98Y/E176V/E187L/E204Q/E69T/I218V/K202T/L119I/Q94N/R155S/R180L/S121R/S35A/S48A/T118I/V127L/V306I/V36M/Y140S/Y91F); conditions: B*3501 binding affinity (IC50)
HLA-B*5401 = HLA-B*5401 (Homo sapiens, UniProt P01889, A329T/C349S/D138N/D201E/E176V/E187T/E204Q/E69G/I76V/K202T/L119W/R155S/R180L/S121T/S35A/S48A/V127L/V306I/V36M/Y140L); format: binding; conditions: B*5401 binding affinity (IC50)
[1] = target: HLA-DQ DQA1*0301/B*0301 (DQ7) (Homo sapiens, UniProt P01909+P01920, A209T/C70Q/DUP78-78/E183D/F237L/G63E/I129T/K197E/L178F/L74F/L98V/Q57E/Q76R/S185I/S97I/T49S/V73L); format: binding; conditions: read-out: DQB1*0301
HLA-DR DRB1*1101 (DR11) = HLA-DR DRB1*1101 (DR11) (Homo sapiens, UniProt P01903+P01911, A100R/A169T/A87E/I96F/K41T/L162R/M171V/P40S/Q125H/Q178H/Q39Y/Q99D/R42S/S66Y/T262R/V115G/W38E); format: binding; conditions: read-out: DRB1 *1101
HLA-DR DRB5*0101 (DR51) = HLA-DR DRB5*0101 (DR51) (Homo sapiens, UniProt P01903+Q30154); format: binding; conditions: read-out: DRB5 *0101
HLA-DR DRB4*0101 (DR53) = HLA-DR DRB4*0101 (DR53) (Homo sapiens, UniProt P01903+P13762, G164S); format: binding; conditions: read-out: DRB4 *0101
HLA-DR DRB1*0701 (DR7) = HLA-DR DRB1*0701 (DR7) (Homo sapiens, UniProt P01903+P01911, A100R/A102G/A103Q/D57E/D86V/E43K/F76Y/K127E/L162R/M171V/P40G/Q125H/Q99D/R33Q/R42Y/R54Q/S133A/S66F/T210M/V115G/Y107V/Y59L/Y89S); format: binding; conditions: read-out: DRB1 *0701
HLA-DR DRB3*0101 (DR52) = HLA-DR DRB3*0101 (DR52) (Homo sapiens, UniProt P01903+P79483); format: binding; conditions: read-out: DRB3 *0101
HLA-DR DRB1*1501 (DR15) = HLA-DR DRB1*1501 (DR15) (Homo sapiens, UniProt P01903+P01911); format: binding; conditions: read-out: DRBI *1501

H-2 Db, sequence (P61769 21-119): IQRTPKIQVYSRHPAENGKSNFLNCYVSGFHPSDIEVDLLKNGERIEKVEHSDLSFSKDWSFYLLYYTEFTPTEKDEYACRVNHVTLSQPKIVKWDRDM
H-2 Db, sequence (P01899 25-362): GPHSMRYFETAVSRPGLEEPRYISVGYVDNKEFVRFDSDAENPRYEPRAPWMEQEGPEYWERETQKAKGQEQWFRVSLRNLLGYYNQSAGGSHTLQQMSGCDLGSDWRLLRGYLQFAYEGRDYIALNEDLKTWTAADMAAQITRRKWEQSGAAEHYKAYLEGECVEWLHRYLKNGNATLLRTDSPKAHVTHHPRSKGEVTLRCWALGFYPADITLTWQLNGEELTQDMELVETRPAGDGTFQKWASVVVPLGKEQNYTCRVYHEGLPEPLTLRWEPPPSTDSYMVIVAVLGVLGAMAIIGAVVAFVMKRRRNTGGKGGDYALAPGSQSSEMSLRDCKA
H-2Dd, sequence (P01900 25-365): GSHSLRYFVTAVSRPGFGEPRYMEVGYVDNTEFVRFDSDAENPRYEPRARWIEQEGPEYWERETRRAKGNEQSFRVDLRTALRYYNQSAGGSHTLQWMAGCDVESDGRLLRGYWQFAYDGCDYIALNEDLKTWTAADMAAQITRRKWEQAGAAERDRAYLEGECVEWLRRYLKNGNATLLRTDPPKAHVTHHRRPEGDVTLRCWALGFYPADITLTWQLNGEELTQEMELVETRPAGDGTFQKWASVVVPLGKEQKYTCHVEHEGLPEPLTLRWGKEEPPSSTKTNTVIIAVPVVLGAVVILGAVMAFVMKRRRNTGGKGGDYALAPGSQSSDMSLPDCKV
H-2Dd, sequence (P61769 21-119, further chain): as the sequence (P61769 21-119) above
HLA-DR DRB1*1101 (DR11), sequence (P01903 26-254 limits assumed, other chains not shown): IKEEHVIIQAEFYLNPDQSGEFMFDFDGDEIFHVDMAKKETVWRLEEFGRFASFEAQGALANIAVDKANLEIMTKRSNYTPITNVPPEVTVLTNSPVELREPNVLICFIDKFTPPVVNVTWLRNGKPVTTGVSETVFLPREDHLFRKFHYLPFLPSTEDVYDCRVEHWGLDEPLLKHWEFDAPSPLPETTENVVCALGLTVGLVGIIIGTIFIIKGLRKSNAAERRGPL

## RGPGRAYVTI
H-2Dd
  pIC50: 7.85

## RGPGRYFVTI
H-2Dd
  pIC50: 8.57

## RGPYKAFVTI
H-2Dd
  pIC50: 7.89

## RGPYRAAVTI
H-2Dd
  pIC50: 8.70

## RGPYRAFATI
H-2Dd
  pIC50: 8.68

## RGPYRAFKTI
H-2Dd
  pIC50: 8.64

## RGPYRAFVAI
H-2Dd
  pIC50: 8.89

## RGPYRAFVKI
H-2Dd
  pIC50: 8.41

## RGPYRAFVTK
H-2Dd
  pIC50: 7.04

## RGPYRAYVTI
H-2Dd
  pIC50: 8.68

## RGPYRKFVTI
H-2Dd
  pIC50: 8.44

## RLIQNFLTI
H-2 Db; Db
  pIC50: 7.40

## RMIQNSLTI
H-2 Db; Db
  pIC50: 8.34

## RNPRFYNL
H-2 Db; Db
  pIC50: < 4.36

## RPGPGPGAV
HLA-B*0702; B*0702 binding affinity (IC50)
  pIC50: 7.64

## RPQVPLRPMTI
HLA-B*5101
  pIC50: 5.09
HLA-B*3501
  pIC50: < 4.72 and 4.98
HLA-B*5401
  pIC50: < 4.82

## RPRFGPGPGEF
HLA-B*0702; B*0702 binding affinity (IC50)
  pIC50: 7.85

## RPRFRGPGPGF
HLA-B*0702; B*0702 binding affinity (IC50)
  pIC50: 8.01

## RPRGPGPGV
HLA-B*0702; B*0702 binding affinity (IC50)
  pIC50: 7.96

## SDSNYYDLLKDLEEG
[1]
  pIC50: < 4.05

## SFYRNLLWL
H-2 Db; Db
  pIC50: 7.34 and 6.52

## SGVENPGGYCL
H-2 Db; Db
  pIC50: 7.22

## SGVENPGGYCM
H-2 Db; Db
  pIC50: 6.89

## SHYAFSPM
H-2 Db; Db
  pIC50: < 4.06

## SQVMNLHNL
H-2 Db; Db
  pIC50: 8.64

## SSMHNALHI
H-2 Db; Db
  pIC50: 8.12

## STGWNRTIVENLLAN
[1]
  pIC50: 4.33

## TALANTIEV
H-2 Db; read-out: Db
  pIC50: 7.80

## TALANTIEY
H-2 Db; read-out: Db
  pIC50: 8.43

## TGICNQNII
H-2 Db; read-out: Db
  pIC50: 7.68

## TGIGNQNII
H-2 Db; read-out: Db
  pIC50: 7.89

## VPGPGPGL
HLA-B*0702; B*0702 binding affinity (IC50)
  pIC50: 5.82

## WGPSLYSI
H-2Dd
  pIC50: 7.77

## WGPSLYSIL
H-2Dd
  pIC50: 8.18

## XVXDNATEY
HLA-B*0702; read-out: B*0702 binding affinity (IC50)
  pIC50: < 4.26

## YAAFAAAKTAAAFA
HLA-DR DRB1*1101 (DR11)
  pIC50: 8.59
HLA-DR DRB5*0101 (DR51)
  pIC50: 8.02
[1]
  pIC50: 7.44 and 7.41
HLA-DR DRB4*0101 (DR53)
  pIC50: 7.52
HLA-DR DRB1*0701 (DR7)
  pIC50: 7.47
HLA-DR DRB3*0101 (DR52)
  pIC50: 4.48
HLA-DR DRB1*1501 (DR15)
  pIC50: < 5.36

## YMRVNGKWM
H-2 Db; Db
  pIC50: 7.30

## YPLTFGWCI
HLA-B*0702; B*0702 binding affinity (IC50)
  pIC50: 4.27
HLA-B*5401
  pIC50: 7.10

Source: patent publication US20060079453A1, “Hla binding peptides and their uses” (priority 2002, published 2006)
